For the assay, the system named is K562. Briefly: Inhibition of Ras farnesylation in human K562 cells after 24 hrs by Western blot. It counts as functional, cell-based. A general note: Immunoblotting shows a protein as a band on a membrane.

Calls of active or inactive are those of the source. No cut-off for these calls is given here.

As to `CC(C)=CCCC(C)=CCC(CC=C(C)CCC=C(C)C)(P(=O)(O)O)P(=O)(O)O`, the outcome was inactive.
The result for `CC(C)=CCC/C(C)=C\CC(C/C=C(\C)CCC=C(C)C)(P(=O)(O)O)P(=O)(O)O` reads “inactive”.
